Tests used:
Assay type in all cases: cell-based
[1] = biological target: T1, Protein cereblon/Inactive tyrosine-protein kinase transmembrane receptor ROR1 (Homo sapiens) (UniProt Q96SW2+Q01973); experiment: PROTAC activity at CRBN/ROR1 in human NCI-H23 cells assessed as induction of ROR1 degradation at 1 uM incubated for 24 hrs by Western blot analysis relative to control
[2] = biological target: T1, Protein cereblon/Inactive tyrosine-protein kinase transmembrane receptor ROR1 (Homo sapiens); experiment: PROTAC activity at CRBN/ROR1 in human NCI-H23 cells assessed as induction of ROR1 degradation at 0.1 uM incubated for 24 hrs by Western blot analysis relative to control
[3] = biological target: T2, von Hippel-Lindau disease tumor suppressor/Inactive tyrosine-protein kinase transmembrane receptor ROR1 (Homo sapiens, UniProt P40337+Q01973); experiment: PROTAC activity at VHL/ROR1 in human NCI-H23 cells assessed as induction of ROR1 degradation at 0.1 uM incubated for 24 hrs by Western blot analysis relative to control
T2 sequence (P40337 whole entry): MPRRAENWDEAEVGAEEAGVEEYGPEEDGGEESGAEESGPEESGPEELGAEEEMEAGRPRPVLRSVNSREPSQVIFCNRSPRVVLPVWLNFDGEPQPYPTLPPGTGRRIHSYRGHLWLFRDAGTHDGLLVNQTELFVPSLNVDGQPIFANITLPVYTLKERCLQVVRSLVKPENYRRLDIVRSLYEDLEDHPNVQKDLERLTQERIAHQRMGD
T2 sequence (Q01973 30-937 partner limits assumed): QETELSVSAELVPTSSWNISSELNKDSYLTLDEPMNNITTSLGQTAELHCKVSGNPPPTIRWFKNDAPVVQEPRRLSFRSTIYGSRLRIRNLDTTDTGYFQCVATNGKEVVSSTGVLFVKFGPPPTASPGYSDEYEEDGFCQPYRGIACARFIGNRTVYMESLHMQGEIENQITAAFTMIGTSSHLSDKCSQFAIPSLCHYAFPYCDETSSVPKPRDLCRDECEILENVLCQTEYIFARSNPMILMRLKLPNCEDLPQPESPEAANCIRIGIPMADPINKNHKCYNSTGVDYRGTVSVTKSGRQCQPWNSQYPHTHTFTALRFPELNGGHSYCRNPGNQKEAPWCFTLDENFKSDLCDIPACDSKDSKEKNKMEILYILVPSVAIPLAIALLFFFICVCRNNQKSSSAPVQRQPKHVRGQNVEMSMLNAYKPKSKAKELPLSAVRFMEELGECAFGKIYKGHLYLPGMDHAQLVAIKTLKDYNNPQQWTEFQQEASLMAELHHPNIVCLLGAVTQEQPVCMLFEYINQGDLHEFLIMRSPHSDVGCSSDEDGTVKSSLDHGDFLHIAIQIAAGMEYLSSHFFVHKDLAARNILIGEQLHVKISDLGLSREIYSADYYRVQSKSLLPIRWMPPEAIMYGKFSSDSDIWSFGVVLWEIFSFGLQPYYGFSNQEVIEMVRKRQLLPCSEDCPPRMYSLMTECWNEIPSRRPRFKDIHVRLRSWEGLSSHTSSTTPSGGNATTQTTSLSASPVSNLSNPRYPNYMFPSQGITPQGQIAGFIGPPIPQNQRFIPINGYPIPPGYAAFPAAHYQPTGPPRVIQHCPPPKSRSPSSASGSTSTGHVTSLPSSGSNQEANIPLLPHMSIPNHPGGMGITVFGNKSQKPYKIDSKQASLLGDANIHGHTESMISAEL

[4] = biological target: T2, von Hippel-Lindau disease tumor suppressor/Inactive tyrosine-protein kinase transmembrane receptor ROR1; experiment: PROTAC activity at VHL/ROR1 in human NCI-H23 cells assessed as induction of ROR1 degradation at 1 uM incubated for 24 hrs by Western blot analysis relative to control

T1 sequence (Q01973 whole entry, looked up): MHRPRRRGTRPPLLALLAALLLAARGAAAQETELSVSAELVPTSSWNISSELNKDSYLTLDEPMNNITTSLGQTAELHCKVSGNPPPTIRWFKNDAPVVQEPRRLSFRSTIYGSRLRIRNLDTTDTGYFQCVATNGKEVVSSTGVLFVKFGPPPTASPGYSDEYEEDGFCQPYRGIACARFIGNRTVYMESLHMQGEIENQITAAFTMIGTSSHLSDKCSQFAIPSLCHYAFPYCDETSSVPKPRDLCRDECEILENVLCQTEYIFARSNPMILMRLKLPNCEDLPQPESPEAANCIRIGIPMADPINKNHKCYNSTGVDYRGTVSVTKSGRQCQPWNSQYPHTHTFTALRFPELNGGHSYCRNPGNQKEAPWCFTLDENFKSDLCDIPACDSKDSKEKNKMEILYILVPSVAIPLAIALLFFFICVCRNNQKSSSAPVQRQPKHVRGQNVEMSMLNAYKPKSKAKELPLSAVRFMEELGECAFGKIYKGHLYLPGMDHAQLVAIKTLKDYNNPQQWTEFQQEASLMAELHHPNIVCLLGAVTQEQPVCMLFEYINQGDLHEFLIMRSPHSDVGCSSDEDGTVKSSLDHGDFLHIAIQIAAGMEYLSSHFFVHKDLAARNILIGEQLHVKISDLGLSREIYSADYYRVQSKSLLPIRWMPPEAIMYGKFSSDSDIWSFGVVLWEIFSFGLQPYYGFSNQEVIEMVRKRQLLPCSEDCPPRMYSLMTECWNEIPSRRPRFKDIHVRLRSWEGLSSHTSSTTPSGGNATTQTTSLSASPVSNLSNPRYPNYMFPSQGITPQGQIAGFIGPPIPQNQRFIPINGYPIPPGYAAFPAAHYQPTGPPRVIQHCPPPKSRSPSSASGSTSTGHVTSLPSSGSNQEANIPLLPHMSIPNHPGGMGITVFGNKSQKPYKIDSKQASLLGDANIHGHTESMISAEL
T1 sequence (Q96SW2 whole entry, looked up): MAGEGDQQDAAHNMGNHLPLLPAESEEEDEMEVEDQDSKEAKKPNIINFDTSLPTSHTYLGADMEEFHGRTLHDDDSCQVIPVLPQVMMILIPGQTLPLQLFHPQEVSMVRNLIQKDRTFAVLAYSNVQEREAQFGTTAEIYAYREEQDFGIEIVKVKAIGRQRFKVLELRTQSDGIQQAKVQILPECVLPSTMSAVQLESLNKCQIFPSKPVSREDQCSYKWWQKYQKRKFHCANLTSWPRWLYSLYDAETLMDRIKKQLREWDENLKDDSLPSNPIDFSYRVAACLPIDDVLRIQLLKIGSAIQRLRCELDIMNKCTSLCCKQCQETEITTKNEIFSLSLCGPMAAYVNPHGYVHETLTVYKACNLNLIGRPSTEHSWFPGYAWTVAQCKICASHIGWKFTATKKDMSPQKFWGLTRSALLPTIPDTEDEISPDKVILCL

Structure (SMILES): CCN1CCC(Nc2c(Br)cnc3[nH]c(-c4ccc(N5CCN(C(=O)COc6cccc7c6C(=O)N(C6CCC(=O)NC6=O)C7=O)CC5)cc4)nc23)CC1 (stereo not drawn)
- Activity [1]: 88.9%
- Activity [2]: 38%

Structure (SMILES): CCN1CCC(Nc2c(Br)cnc3[nH]c(-c4ccc(N5CCN(CCCCCCCC(=O)N[C@H](C(=O)N6C[C@H](O)C[C@H]6C(=O)NCc6ccc(-c7scnc7C)cc6)C(C)(C)C)CC5)cc4)nc23)CC1
- Activity [3]: 52.5%
- Activity [4]: 99.6%

Structure (SMILES): CCN1CCC(Nc2c(Br)cnc3[nH]c(-c4ccc(N5CCN(CCOCCOCCOCCNc6cccc7c6C(=O)N(C6CCC(=O)NC6=O)C7=O)CC5)cc4)nc23)CC1 (stereo not drawn)
- Activity [1]: 93.8%
- Activity [2]: 30.4%

Structure (SMILES): CCN1CCC(Nc2c(Br)cnc3[nH]c(-c4ccc(N5CCN(C(=O)CCCNc6cccc7c6C(=O)N(C6CCC(=O)NC6=O)C7=O)CC5)cc4)nc23)CC1 (stereo not drawn)
- Activity [1]: 76%
- Activity [2]: 6.6%

Structure (SMILES): CCN1CCC(Nc2c(Br)cnc3[nH]c(-c4ccc(N5CCN(C(=O)CCCCCCC(=O)N[C@H](C(=O)N6C[C@H](O)C[C@H]6C(=O)NCc6ccc(-c7scnc7C)cc6)C(C)(C)C)CC5)cc4)nc23)CC1
- Activity [3]: 36.5%
- Activity [4]: 84.1%

Structure (SMILES): CCN1CCC(Nc2c(Br)cnc3[nH]c(-c4ccc(N5CCN(CCCCCCCCCC(=O)N[C@H](C(=O)N6C[C@H](O)C[C@H]6C(=O)NCc6ccc(-c7scnc7C)cc6)C(C)(C)C)CC5)cc4)nc23)CC1
- Activity [3]: 28.1%
- Activity [4]: 88.4%

Structure (SMILES): CCN1CCC(Nc2c(Br)cnc3[nH]c(-c4ccc(N5CCN(CCOCCOCCNc6ccc7c(c6)C(=O)N(C6CCC(=O)NC6=O)C7=O)CC5)cc4)nc23)CC1 (stereo not drawn)
- Activity [1]: 88.7%
- Activity [2]: 0%

Structure (SMILES): CCN1CCC(Nc2c(Br)cnc3[nH]c(-c4ccc(N5CCN(C(=O)CCCCCCCNc6ccc7c(c6)C(=O)N(C6CCC(=O)NC6=O)C7=O)CC5)cc4)nc23)CC1 (stereo not drawn)
- Activity [1]: 73.3%
- Activity [2]: 30.5%

Structure (SMILES): CCN1CCC(Nc2c(Br)cnc3[nH]c(-c4ccc(N5CCN(C(=O)CCCCCCCOc6cccc7c6C(=O)N(C6CCC(=O)NC6=O)C7=O)CC5)cc4)nc23)CC1 (stereo not drawn)
- Activity [1]: 0%
- Activity [2]: 9.5%

Structure (SMILES): CCN1CCC(Nc2c(Br)cnc3[nH]c(-c4ccc(N5CCN(CCOCCOCCOCCNc6ccc7c(c6)C(=O)N(C6CCC(=O)NC6=O)C7=O)CC5)cc4)nc23)CC1 (stereo not drawn)
- Activity [1]: 73.5%
- Activity [2]: 0%

Structure (SMILES): CCN1CCC(Nc2c(Br)cnc3[nH]c(-c4ccc(N5CCN(CCCCCCNc6cccc7c6C(=O)N(C6CCC(=O)NC6=O)C7=O)CC5)cc4)nc23)CC1 (stereo not drawn)
- Activity [1]: 96.5%
- Activity [2]: 6.1%

Structure (SMILES): CCN1CCC(Nc2c(Br)cnc3[nH]c(-c4ccc(N5CCN(C(=O)CCCCCCCNc6cccc7c6C(=O)N(C6CCC(=O)NC6=O)C7=O)CC5)cc4)nc23)CC1 (stereo not drawn)
- Activity [1]: 75.3%
- Activity [2]: 1.2%

Structure (SMILES): CCN1CCC(Nc2c(Br)cnc3[nH]c(-c4ccc(N5CCN(C(=O)CNc6ccc7c(c6)C(=O)N(C6CCC(=O)NC6=O)C7=O)CC5)cc4)nc23)CC1 (stereo not drawn)
- Activity [1]: 71%
- Activity [2]: 0.8%

Structure (SMILES): CCN1CCC(Nc2c(Br)cnc3[nH]c(-c4ccc(N5CCN(CCCC(=O)N[C@H](C(=O)N6C[C@H](O)C[C@H]6C(=O)NCc6ccc(-c7scnc7C)cc6)C(C)(C)C)CC5)cc4)nc23)CC1
- Activity [3]: 22.6%
- Activity [4]: 23.6%

Structure (SMILES): CCN1CCC(Nc2c(Br)cnc3[nH]c(-c4ccc(N5CCN(CCCCCCNc6ccc7c(c6)C(=O)N(C6CCC(=O)NC6=O)C7=O)CC5)cc4)nc23)CC1 (stereo not drawn)
- Activity [1]: 89.9%
- Activity [2]: 37.6%

Structure (SMILES): CCN1CCC(Nc2c(Br)cnc3[nH]c(-c4ccc(N5CCN(C(=O)CCCCCCCCCNc6cccc7c6C(=O)N(C6CCC(=O)NC6=O)C7=O)CC5)cc4)nc23)CC1 (stereo not drawn)
- Activity [1]: 57.5%
- Activity [2]: 6.7%

Structure (SMILES): CCN1CCC(Nc2c(Br)cnc3[nH]c(-c4ccc(N5CCN(C(=O)CCCCC(=O)N[C@H](C(=O)N6C[C@H](O)C[C@H]6C(=O)NCc6ccc(-c7scnc7C)cc6)C(C)(C)C)CC5)cc4)nc23)CC1
- Activity [3]: 12.9%
- Activity [4]: 35.3%

Structure (SMILES): CCN1CCC(Nc2c(Br)cnc3[nH]c(-c4ccc(N5CCN(C(=O)CCCCCCCCCOc6cccc7c6C(=O)N(C6CCC(=O)NC6=O)C7=O)CC5)cc4)nc23)CC1 (stereo not drawn)
- Activity [1]: 99.6%
- Activity [2]: 38.7%

Structure (SMILES): CCN1CCC(Nc2c(Br)cnc3[nH]c(-c4ccc(N5CCN(CCCCCC(=O)N[C@H](C(=O)N6C[C@H](O)C[C@H]6C(=O)NCc6ccc(-c7scnc7C)cc6)C(C)(C)C)CC5)cc4)nc23)CC1
- Activity [3]: 29.3%
- Activity [4]: 78.5%

Structure (SMILES): CCN1CCC(Nc2c(Br)cnc3[nH]c(-c4ccc(N5CCN(C(=O)CNc6cccc7c6C(=O)N(C6CCC(=O)NC6=O)C7=O)CC5)cc4)nc23)CC1 (stereo not drawn)
- Activity [1]: 83.3%
- Activity [2]: 0%

Structure (SMILES): CCN1CCC(Nc2c(Br)cnc3[nH]c(-c4ccc(N5CCN(C(=O)CCCCCNc6cccc7c6C(=O)N(C6CCC(=O)NC6=O)C7=O)CC5)cc4)nc23)CC1 (stereo not drawn)
- Activity [1]: 75.8%
- Activity [2]: 6.2%

Structure (SMILES): CCN1CCC(Nc2c(Br)cnc3[nH]c(-c4ccc(N5CCN(C(=O)CCCCCNc6ccc7c(c6)C(=O)N(C6CCC(=O)NC6=O)C7=O)CC5)cc4)nc23)CC1 (stereo not drawn)
- Activity [1]: 87.2%
- Activity [2]: 35.5%

Structure (SMILES): CCN1CCC(Nc2c(Br)cnc3[nH]c(-c4ccc(N5CCN(C(=O)CCC(=O)N[C@H](C(=O)N6C[C@H](O)C[C@H]6C(=O)NCc6ccc(-c7scnc7C)cc6)C(C)(C)C)CC5)cc4)nc23)CC1
- Activity [3]: 32.5%
- Activity [4]: 85.8%

Structure (SMILES): CCN1CCC(Nc2c(Br)cnc3[nH]c(-c4ccc(N5CCN(CCNc6ccc7c(c6)C(=O)N(C6CCC(=O)NC6=O)C7=O)CC5)cc4)nc23)CC1 (stereo not drawn)
- Activity [1]: 92.7%
- Activity [2]: 3.2%

Structure (SMILES): CCN1CCC(Nc2c(Br)cnc3[nH]c(-c4ccc(N5CCN(C(=O)CCCCCCCCCOc6ccc7c(c6)C(=O)N(C6CCC(=O)NC6=O)C7=O)CC5)cc4)nc23)CC1 (stereo not drawn)
- Activity [1]: 60.5%
- Activity [2]: 0%

Structure (SMILES): CCN1CCC(Nc2c(Br)cnc3[nH]c(-c4ccc(N5CCN(CC(=O)N[C@H](C(=O)N6C[C@H](O)C[C@H]6C(=O)NCc6ccc(-c7scnc7C)cc6)C(C)(C)C)CC5)cc4)nc23)CC1
- Activity [3]: 10.2%
- Activity [4]: 46.2%

Structure (SMILES): CCN1CCC(Nc2c(Br)cnc3[nH]c(-c4ccc(N5CCN(CCNc6cccc7c6C(=O)N(C6CCC(=O)NC6=O)C7=O)CC5)cc4)nc23)CC1 (stereo not drawn)
- Activity [1]: 99.3%
- Activity [2]: 69.7%

Structure (SMILES): CCN1CCC(Nc2c(Br)cnc3[nH]c(-c4ccc(N5CCN(C(=O)CCCCCOc6cccc7c6C(=O)N(C6CCC(=O)NC6=O)C7=O)CC5)cc4)nc23)CC1 (stereo not drawn)
- Activity [1]: 0%
- Activity [2]: 0%

Structure (SMILES): CCN1CCC(Nc2c(Br)cnc3[nH]c(-c4ccc(N5CCN(CCOCCOCCNc6cccc7c6C(=O)N(C6CCC(=O)NC6=O)C7=O)CC5)cc4)nc23)CC1 (stereo not drawn)
- Activity [1]: 89.6%
- Activity [2]: 11.1%

Structure (SMILES): CCN1CCC(Nc2c(Br)cnc3[nH]c(-c4ccc(N5CCN(CCCNc6cccc7c6C(=O)N(C6CCC(=O)NC6=O)C7=O)CC5)cc4)nc23)CC1 (stereo not drawn)
- Activity [1]: 99.7%
- Activity [2]: 76.1%

Structure (SMILES): CCN1CCC(Nc2c(Br)cnc3[nH]c(-c4ccc(N5CCN(C(=O)CCCCCCCCCCC(=O)N[C@H](C(=O)N6C[C@H](O)C[C@H]6C(=O)NCc6ccc(-c7scnc7C)cc6)C(C)(C)C)CC5)cc4)nc23)CC1
- Activity [3]: 85.1%
- Activity [4]: 99.7%

Structure (SMILES): CCN1CCC(Nc2c(Br)cnc3[nH]c(-c4ccc(N5CCN(C(=O)CCCCCOc6ccc7c(c6)C(=O)N(C6CCC(=O)NC6=O)C7=O)CC5)cc4)nc23)CC1 (stereo not drawn)
- Activity [1]: 0%
- Activity [2]: 0%

Structure (SMILES): CCN1CCC(Nc2c(Br)cnc3[nH]c(-c4ccc(N5CCN(C(=O)CCCOc6ccc7c(c6)C(=O)N(C6CCC(=O)NC6=O)C7=O)CC5)cc4)nc23)CC1 (stereo not drawn)
- Activity [1]: 87.3%
- Activity [2]: 0%

Structure (SMILES): CCN1CCC(Nc2c(Br)cnc3[nH]c(-c4ccc(N5CCN(C(=O)CCCNc6ccc7c(c6)C(=O)N(C6CCC(=O)NC6=O)C7=O)CC5)cc4)nc23)CC1 (stereo not drawn)
- Activity [1]: 46.8%
- Activity [2]: 11%

Structure (SMILES): CCN1CCC(Nc2c(Br)cnc3[nH]c(-c4ccc(N5CCN(C(=O)CCCOc6cccc7c6C(=O)N(C6CCC(=O)NC6=O)C7=O)CC5)cc4)nc23)CC1 (stereo not drawn)
- Activity [1]: 50.6%
- Activity [2]: 0%

Structure (SMILES): CCN1CCC(Nc2c(Br)cnc3[nH]c(-c4ccc(N5CCN(C(=O)CCCCCCCCCNc6ccc7c(c6)C(=O)N(C6CCC(=O)NC6=O)C7=O)CC5)cc4)nc23)CC1 (stereo not drawn)
- Activity [1]: 0%
- Activity [2]: 1.6%

Structure (SMILES): CCN1CCC(Nc2c(Br)cnc3[nH]c(-c4ccc(N5CCN(CCCNc6ccc7c(c6)C(=O)N(C6CCC(=O)NC6=O)C7=O)CC5)cc4)nc23)CC1 (stereo not drawn)
- Activity [1]: 97.4%
- Activity [2]: 23.2%

Structure (SMILES): CCN1CCC(Nc2c(Br)cnc3[nH]c(-c4ccc(N5CCN(C(=O)CCCCCCCOc6ccc7c(c6)C(=O)N(C6CCC(=O)NC6=O)C7=O)CC5)cc4)nc23)CC1 (stereo not drawn)
- Activity [1]: 0%
- Activity [2]: 0%

Structure (SMILES): CCN1CCC(Nc2c(Br)cnc3[nH]c(-c4ccc(N5CCN(C(=O)COc6ccc7c(c6)C(=O)N(C6CCC(=O)NC6=O)C7=O)CC5)cc4)nc23)CC1 (stereo not drawn)
- Activity [1]: 0%
- Activity [2]: 0%

From ChEMBL document CHEMBL6153104, “Discovery of the first potent ROR1 degrader for the treatment of non-small cell lung cancer” (Eur J Med Chem, 2025)
